Where “and” joins values, the source holds several entries; their conditions need not be identical. Identical values can stand only once.
How the values were obtained:
[1] = U.S. Phase Ia trial of Compound A monotherapy: pharmacokinetics; type: in vivo; settings: human, plasma, oral, Compound A Plasma Level
Protocol: Studies on the 200 mg and 300 mg cohorts were conducted in a standard 3+3 design.
Drug-related adverse events (AEs), including DLT, non-hematologic AEs and hematologic AEs were recorded. […] The PK indexes of single dose administration included AUClast, AUCO-∞, Cmax, tmax, t1/2, CL/F and Vd/F. The PK indexes of steady state under continuous administration included AUCss, Cmax,ss and tmax,ss.

[2] = toxicokinetics in beagle dogs; type: in vivo
Text: (§1) Both patents are incorporated by reference herein in their entirety.

[3] = China Phase I trial of Compound A monotherapy: safety; type: in vivo, human
Protocol: (§2) The pharmacokinetics of Compound A was also evaluated.
(§3) Patients who met the following inclusion criteria were enrolled in the trials in China: i) age≥18 years, no gender limits, and provide the informed consent form; ii) B-cell lymphoma classification is based on WHO classified definition, including CLL, small lymphocytic lymphoma (SLL); CLL with 17p-; MCL; WM; DLBCL, etc.; iii) measurable lesion: NHL requires at least one≥2 cm two-dimensional lesion diameter, CLL≥5000 leukemia cells/mm^3, WM IgM≥1000 mg/dL, bone marrow lymph plasma-like cells infiltration, histopathologically diagnosed as DLBCL; iv) patients failed in lymphoma treatment at least once and have no standard therapeutic options; DLBCL patients who are not suitable for or reject autologous stem cell transplantation; and v) ECOG (Eastern Cooperative Oncology Group) performance status 0˜1. Meanwhile, patients who met any one of the following criteria were excluded: i) disease with changes of pathological tissue types (including large cell transformation); ii) patients received other BTK inhibitor therapy (China only); and iii) patients with HIV infection, or HBs-Ag or HBc-Ab positive.
(§4) No intrapatient dose escalation of Compound A was permitted.

JAK3 = target: T1, JAK3 (Homo sapiens, UniProt P52333); assay: 46 kinase panel; type: biochemical
T1 sequence (P52333 1-1124): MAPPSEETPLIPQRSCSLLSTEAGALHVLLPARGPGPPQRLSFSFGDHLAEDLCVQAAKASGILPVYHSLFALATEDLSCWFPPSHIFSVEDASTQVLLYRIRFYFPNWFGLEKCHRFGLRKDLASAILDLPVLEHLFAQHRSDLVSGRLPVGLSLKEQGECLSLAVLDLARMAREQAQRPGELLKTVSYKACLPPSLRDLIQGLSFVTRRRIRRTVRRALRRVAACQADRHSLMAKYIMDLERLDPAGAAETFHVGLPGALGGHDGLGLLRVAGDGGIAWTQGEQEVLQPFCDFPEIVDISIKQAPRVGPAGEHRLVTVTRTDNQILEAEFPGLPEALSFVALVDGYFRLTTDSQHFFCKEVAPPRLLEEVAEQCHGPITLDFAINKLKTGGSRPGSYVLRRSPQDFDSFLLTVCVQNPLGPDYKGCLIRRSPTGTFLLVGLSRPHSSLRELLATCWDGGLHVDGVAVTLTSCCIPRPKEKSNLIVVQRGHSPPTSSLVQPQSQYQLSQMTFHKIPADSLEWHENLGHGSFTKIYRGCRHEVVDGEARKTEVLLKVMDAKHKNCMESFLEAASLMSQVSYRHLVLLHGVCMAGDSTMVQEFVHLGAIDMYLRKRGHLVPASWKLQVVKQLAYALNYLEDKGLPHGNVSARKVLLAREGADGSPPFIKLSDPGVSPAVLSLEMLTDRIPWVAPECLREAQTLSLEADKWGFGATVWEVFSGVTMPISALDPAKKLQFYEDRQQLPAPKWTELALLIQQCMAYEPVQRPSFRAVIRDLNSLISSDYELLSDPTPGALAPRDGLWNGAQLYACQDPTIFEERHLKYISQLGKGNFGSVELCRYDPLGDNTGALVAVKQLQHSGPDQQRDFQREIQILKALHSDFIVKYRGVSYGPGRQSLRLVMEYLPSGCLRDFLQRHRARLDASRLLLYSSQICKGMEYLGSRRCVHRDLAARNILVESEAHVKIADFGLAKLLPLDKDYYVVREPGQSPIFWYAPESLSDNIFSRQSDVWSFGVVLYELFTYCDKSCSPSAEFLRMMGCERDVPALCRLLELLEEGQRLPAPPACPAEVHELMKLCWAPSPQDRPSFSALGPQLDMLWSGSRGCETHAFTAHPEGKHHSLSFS
Text: as §1

FGFR1 = FGFR1 (Homo sapiens, UniProt P11362); assay: 46 kinase panel; type: biochemical
Text: as §1

EGFR kinase = EGFR kinase (Homo sapiens, UniProt P00533); assay: 46 kinase panel; type: biochemical
Text: as §1

FGFR2 = FGFR2 (Homo sapiens, UniProt P21802); assay: 46 kinase panel; type: biochemical
Text: as §1

toxicokinetics in rats = type: in vivo
Text: as §1

[4] = China Phase I trial of Compound A monotherapy: pharmacokinetics; type: in vivo, human
Protocol: as §2, §3, §4

[5] = system: relapsed/refractory B-cell lymphomas; assay: China Phase I trial of Compound A monotherapy: efficacy; type: in vivo, human
Protocol: as §2, §3, §4

[6] = 13 patients, 50-400 mg daily, 28 day dosing schedule

Chain of EGFR kinase (P00533 25-1210): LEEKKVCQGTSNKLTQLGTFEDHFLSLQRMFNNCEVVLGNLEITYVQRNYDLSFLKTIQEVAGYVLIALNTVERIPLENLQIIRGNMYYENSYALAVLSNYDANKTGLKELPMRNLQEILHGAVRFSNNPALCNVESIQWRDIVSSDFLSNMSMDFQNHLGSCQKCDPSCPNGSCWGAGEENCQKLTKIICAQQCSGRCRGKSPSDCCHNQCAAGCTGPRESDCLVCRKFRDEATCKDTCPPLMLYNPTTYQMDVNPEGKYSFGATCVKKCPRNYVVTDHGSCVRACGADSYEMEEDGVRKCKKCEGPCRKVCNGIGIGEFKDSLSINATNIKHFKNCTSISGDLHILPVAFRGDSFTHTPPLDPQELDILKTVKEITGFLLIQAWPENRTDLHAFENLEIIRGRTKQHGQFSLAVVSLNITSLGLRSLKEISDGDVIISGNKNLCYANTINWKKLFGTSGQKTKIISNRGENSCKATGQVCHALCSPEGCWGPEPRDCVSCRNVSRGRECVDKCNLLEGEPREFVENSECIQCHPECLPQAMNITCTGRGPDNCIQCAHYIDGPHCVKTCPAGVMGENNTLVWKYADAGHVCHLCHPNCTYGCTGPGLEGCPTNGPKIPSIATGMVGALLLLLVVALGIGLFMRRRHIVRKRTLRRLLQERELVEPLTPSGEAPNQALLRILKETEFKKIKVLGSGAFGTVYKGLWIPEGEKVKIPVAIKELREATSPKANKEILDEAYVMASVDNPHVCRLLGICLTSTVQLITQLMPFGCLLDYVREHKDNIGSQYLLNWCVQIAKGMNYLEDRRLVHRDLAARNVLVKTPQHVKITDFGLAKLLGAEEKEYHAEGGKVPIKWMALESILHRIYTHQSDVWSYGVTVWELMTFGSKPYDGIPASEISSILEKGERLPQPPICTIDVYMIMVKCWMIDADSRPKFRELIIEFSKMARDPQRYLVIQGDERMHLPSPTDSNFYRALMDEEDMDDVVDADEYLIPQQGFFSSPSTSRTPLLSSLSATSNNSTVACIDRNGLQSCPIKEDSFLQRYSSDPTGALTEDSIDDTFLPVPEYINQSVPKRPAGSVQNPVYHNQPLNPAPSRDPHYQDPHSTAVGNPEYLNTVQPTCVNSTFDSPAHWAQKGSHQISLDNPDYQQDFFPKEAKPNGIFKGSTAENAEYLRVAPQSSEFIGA
Chain of FGFR1 (P11362 22-822, species assumed): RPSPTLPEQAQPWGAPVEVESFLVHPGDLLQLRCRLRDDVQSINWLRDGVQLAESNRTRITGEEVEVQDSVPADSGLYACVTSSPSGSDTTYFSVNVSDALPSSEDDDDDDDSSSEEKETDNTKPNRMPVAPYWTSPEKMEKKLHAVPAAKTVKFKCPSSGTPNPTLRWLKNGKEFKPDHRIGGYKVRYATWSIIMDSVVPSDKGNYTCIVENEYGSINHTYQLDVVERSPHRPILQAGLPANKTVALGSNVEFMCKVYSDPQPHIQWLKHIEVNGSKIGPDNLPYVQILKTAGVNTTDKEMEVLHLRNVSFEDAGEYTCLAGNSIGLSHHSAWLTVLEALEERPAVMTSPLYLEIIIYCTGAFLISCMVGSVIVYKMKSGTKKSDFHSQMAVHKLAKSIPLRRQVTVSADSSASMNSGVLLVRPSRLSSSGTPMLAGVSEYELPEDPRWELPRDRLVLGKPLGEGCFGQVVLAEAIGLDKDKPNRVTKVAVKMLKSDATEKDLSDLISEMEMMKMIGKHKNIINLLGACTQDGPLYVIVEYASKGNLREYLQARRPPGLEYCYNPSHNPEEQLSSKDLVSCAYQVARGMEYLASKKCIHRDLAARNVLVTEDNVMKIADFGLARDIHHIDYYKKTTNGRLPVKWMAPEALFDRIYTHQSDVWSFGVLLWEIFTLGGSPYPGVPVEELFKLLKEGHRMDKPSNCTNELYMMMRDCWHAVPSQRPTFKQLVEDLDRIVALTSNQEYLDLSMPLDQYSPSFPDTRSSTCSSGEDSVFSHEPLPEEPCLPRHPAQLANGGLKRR
Chain of FGFR2 (P21802 22-821, species assumed): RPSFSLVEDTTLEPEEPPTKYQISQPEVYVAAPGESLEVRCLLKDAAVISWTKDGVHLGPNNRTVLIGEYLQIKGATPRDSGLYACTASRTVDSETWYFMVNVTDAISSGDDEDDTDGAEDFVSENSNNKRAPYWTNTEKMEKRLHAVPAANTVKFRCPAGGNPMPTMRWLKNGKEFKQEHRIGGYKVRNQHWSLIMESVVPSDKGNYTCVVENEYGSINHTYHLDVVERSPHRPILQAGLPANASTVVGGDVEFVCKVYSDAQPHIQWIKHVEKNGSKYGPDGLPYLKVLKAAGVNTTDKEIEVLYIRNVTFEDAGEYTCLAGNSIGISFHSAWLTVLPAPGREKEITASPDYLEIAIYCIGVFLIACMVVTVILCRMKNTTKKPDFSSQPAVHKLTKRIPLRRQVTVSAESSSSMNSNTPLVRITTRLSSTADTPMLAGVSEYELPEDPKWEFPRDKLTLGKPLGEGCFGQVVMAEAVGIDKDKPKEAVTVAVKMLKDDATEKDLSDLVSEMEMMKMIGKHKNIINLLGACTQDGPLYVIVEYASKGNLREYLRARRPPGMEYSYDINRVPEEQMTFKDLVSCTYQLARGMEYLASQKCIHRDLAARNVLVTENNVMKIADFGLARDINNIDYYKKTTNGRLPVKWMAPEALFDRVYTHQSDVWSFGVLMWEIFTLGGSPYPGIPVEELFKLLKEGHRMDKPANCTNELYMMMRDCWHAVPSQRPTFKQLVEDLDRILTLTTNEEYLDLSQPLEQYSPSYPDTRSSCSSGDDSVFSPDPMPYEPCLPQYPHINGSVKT

In the case of C=CC(=O)N1CC[C@@H](n2nc(-c3ccc(Oc4c(F)c(F)cc(F)c4F)cc3F)c3c(N)ncnc32)C1 [Compound A, 1-((R)-3-(4-amino-3-(2-fluoro-4-(2,3,5,6-tetrafluorophenoxy)phenyl)-1H-pyrazolo[3,4-d]pyrimidin-1-yl)pyrrolidin-1-yl)prop-2-en-1-one], the concentration at 0 h ([1]; 50 mg, Day 1, 50 mg) is reported as 0 ng/mL, the concentration at 0.5 h ([1]; 50 mg, Day 1, 50 mg) is reported as 2.84 ng/mL and the concentration at 1 h ([1]; 50 mg, Day 1, 50 mg) is reported as 26.9 ng/mL. The concentration at 2 h ([1]; 50 mg, Day 1, 50 mg) was 63.4 ng/mL, the concentration at 4 h ([1]; 50 mg, Day 1, 50 mg) was 15.3 ng/mL and the concentration at 6 h ([1]; 50 mg, Day 1, 50 mg) was 6.44 ng/mL. It also gave a concentration at 24 h ([1]; 50 mg, Day 1, 50 mg) of 0 ng/mL, a concentration at 0 h ([1]; 100 mg, Day 1, 100 mg) of 9.04 ng/mL and a concentration at 0.5 h ([1]; 100 mg, Day 1, 100 mg) of 44.9 ng/mL. It also gave a concentration at 1 h ([1]; 100 mg, Day 1, 100 mg) of 53.3 ng/mL, a concentration at 2 h ([1]; 100 mg, Day 1, 100 mg) of 21.3 ng/mL and a concentration at 4 h ([1]; 100 mg, Day 1, 100 mg) of 13.3 ng/mL. The concentration at 6 h ([1]; 100 mg, Day 1, 100 mg) was 13.3 ng/mL, the concentration at 24 h ([1]; 100 mg, Day 1, 100 mg) was 3.06 ng/mL and the concentration at 0 h ([1]; 200 mg, Day 1, 200 mg) was 0 ng/mL. For the same compound, the concentration at 0.5 h ([1]; 200 mg, Day 1, 200 mg) was 0 ng/mL, the toxicokinetics properties [2] was “Improved toxicokinetics properties” and the “Grade 2, 4 or 5 hematologic events” value [3] was “No Grade 2, 4 or 5 hematologic events occurred”. For the same compound, the “Grade 2, 4 or 5 non-hematologic events” value [3] was “No Grade 2, 4 or 5 non-hematologic events occurred”, the “anemia, patients” value [3, 6] was 23.1% and the “leucopenia, patients” value [3, 6] was 23.1%. For the same compound, the “neutropenia, patients” value [3, 6] was 23.1%, the dose-limiting toxicity ([3]; 50-400 mg daily) was “No dose-limiting toxicity occurred” and the “grade of the majority of drug-related AEs” value ([3]; 28 day dosing schedule) was “grade 1”. For the same compound, the “Grade 1 alanine aminotransferase (ALT) elevation, patients” value ([3]; one patient) was 7.7%, the “Grade 1 neutropenia, patients” value ([3]; one patient) was 7.7% and the “Grade 3 pneumonia, patients” value ([3]; one patient) was 7.7%. For the same compound, the “Grade 3 neutropenia, patients” value ([3]; two patients) was 15.4%, the “inhibition of JAK3” value (JAK3) was “partial inhibition” and the “inhibition of FGFR1” value (FGFR1) was “partial inhibition”. The “inhibition of EGFR” value (EGFR kinase; 46 kinase panel) was “partial inhibition”, the IC50 (EGFR kinase; read-out: IC50 against EGFR kinase) was 110 nM and the “inhibition of FGFR2” value (FGFR2) was “partial inhibition”. For the same compound, the toxicokinetics properties (toxicokinetics in rats) was “Improved toxicokinetics properties”, the “Compound A Plasma Levels” value ([4]; Day 1, 100 mg, 2 h) was 107 ng/mL and 150 ng/mL and the “Compound A Plasma Levels” value ([4]; Day 1, 100 mg, 6 h) was 22.8 ng/mL and 29.4 ng/mL. The “Compound A Plasma Levels” value ([4]; Day 1, 400 mg, 4 h) was 243 ng/mL and 184 ng/mL, the “Compound A Plasma Levels” value ([4]; Day 1, 400 mg, 6 h) was 107 ng/mL and 130 ng/mL and the “Compound A Plasma Levels” value ([4]; Day 8, 100 mg, 2 h) was 135 ng/mL and 83.0 ng/mL. For the same compound, the “Compound A Plasma Levels” value ([4]; Day 8, 100 mg, 24 h) was 1.73 ng/mL and 1.27 ng/mL, the “Compound A Plasma Levels” value ([4]; Day 8, 200 mg, 0 h) was 5.13 ng/mL and 3.53 ng/mL and the “Compound A Plasma Levels” value ([4]; Day 8, 200 mg, 1 h) was 239 ng/mL. For the same compound, the “Compound A Plasma Levels” value ([4]; Day 8, 200 mg, 2 h) was 273 ng/mL and 295 ng/mL, the “Compound A Plasma Levels” value ([4]; Day 8, 400 mg, 4 h) was 214 ng/mL and 217 ng/mL and the concentration at 0 h ([4]; human, plasma, oral, 50 mg, Compound A Plasma Levels, Day 1, 50 mg, 0 h) was 0 ng/mL. The concentration at 24 h ([4]; human, plasma, oral, 50 mg, Compound A Plasma Levels, Day 1, 50 mg, 24 h) was 0 ng/mL, the concentration at 24 h ([4]; human, plasma, oral, 50 mg, Compound A Plasma Levels, Day 8, 50 mg, 24 h) was 0 ng/mL and the concentration at 0 h ([4]; human, plasma, oral, 100 mg, Compound A Plasma Levels, Day 1, 100 mg, 0 h) was 0 ng/mL. For the same compound, the concentration at 2 h ([4]; human, plasma, oral, 100 mg, Compound A Plasma Levels, Day 1, 100 mg, 2 h) was 192 ng/mL, the concentration at 6 h ([4]; human, plasma, oral, 100 mg, Compound A Plasma Levels, Day 1, 100 mg, 6 h) was 29.1 ng/mL and the concentration at 2 h ([4]; human, plasma, oral, 100 mg, Compound A Plasma Levels, Day 8, 100 mg, 2 h) was 166 ng/mL. It also gave a concentration at 24 h ([4]; human, plasma, oral, 100 mg, Compound A Plasma Levels, Day 8, 100 mg, 24 h) of 1.34 ng/mL, a concentration at 0 h ([4]; human, plasma, oral, 200 mg, Compound A Plasma Levels, Day 1, 200 mg, 0 h) of 0 ng/mL and a concentration at 0 h ([4]; human, plasma, oral, 200 mg, Compound A Plasma Levels, Day 8, 200 mg, 0 h) of 3.69 ng/mL. For the same compound, the concentration at 1 h ([4]; human, plasma, oral, 200 mg, Compound A Plasma Levels, Day 8, 200 mg, 1 h) was 369 ng/mL, the concentration at 2 h ([4]; human, plasma, oral, 200 mg, Compound A Plasma Levels, Day 8, 200 mg, 2 h) was 537 ng/mL and the concentration at 0 h ([4]; human, plasma, oral, 400 mg, Compound A Plasma Levels, Day 1, 400 mg, 0 h) was 0 ng/mL. For the same compound, the concentration at 4 h ([4]; human, plasma, oral, 400 mg, Compound A Plasma Levels, Day 1, 400 mg, 4 h) was 134 ng/mL, the concentration at 6 h ([4]; human, plasma, oral, 400 mg, Compound A Plasma Levels, Day 1, 400 mg, 6 h) was 85.9 ng/mL and the concentration at 4 h ([4]; human, plasma, oral, 400 mg, Compound A Plasma Levels, Day 8, 400 mg, 4 h) was 159 ng/mL. The response ([5]; FL patients (N=2)) was 1PR, 1SD, the “progressive disease after treatment” value ([5]; FL patients, first cycle) was “three FL patients experienced progressive disease” and the response ([5]; MZL patients (N=2)) was 1CR, 1SD. It also gave a response ([5]; WM patients (N=2)) of 2PR.
